Test results published in publication PMC9854187, “A novel Mcl-1 inhibitor synergizes with venetoclax to induce apoptosis in cancer cells” (Molecular Medicine, 2023).

Target: T1, Mcl-1 (Homo sapiens, UniProt Q07820)
T1 construct: gene MCL1; recombinant GST-Mcl-1
Test: fluorescence polarization with recombinant GST-Mcl-1; supported by GST pull-down showing disruption of Mcl-1/Bak
Format: binding

T1 sequence (Q07820 whole entry): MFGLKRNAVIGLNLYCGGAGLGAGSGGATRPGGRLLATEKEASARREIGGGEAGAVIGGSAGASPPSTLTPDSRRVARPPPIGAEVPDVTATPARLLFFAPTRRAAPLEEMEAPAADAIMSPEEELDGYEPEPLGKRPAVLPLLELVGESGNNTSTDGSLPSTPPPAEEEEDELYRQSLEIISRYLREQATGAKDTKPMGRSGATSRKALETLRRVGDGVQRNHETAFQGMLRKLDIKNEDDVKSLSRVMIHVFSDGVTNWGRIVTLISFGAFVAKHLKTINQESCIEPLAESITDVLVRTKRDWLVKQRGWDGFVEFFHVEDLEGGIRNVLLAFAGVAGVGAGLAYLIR

Ki: 450 ± 50 nM
Structure (SMILES): Cc1cc(Cl)ccc1NC(=O)C(=O)C(C(=O)c1ccc2ccccc2c1)C1OC(=O)c2ccccc21 (stereo not shown) [MI-238]
